From US20080207614A1, “QUINAZOLINE DERIVATIVES FOR THE TREATMENT AND PREVENTION OF DIABETES AND OBESITY” (SK CHEMICALS CO., LTD., priority 2004, published 2008)

System: C2C12 muscle cells
Experiment: Analysis of glucose absorption (2-deoxyglucose) in differentiated C2C12 muscle cells
Assay type: cell-based
Conditions: test materials 10 μM, times relative to control group
Method: C2C12 muscle cells were cultured in DMEM (Dulbecco's modified Eagle's medium) containing 10% bovine calf serum. When the cell density increased to about 85 to 90%, the culture medium was replaced with 1% bovine calf serum and cell differentiation was induced for 6 days. Completely differentiated cells were cultured for 3 hours with Krebs-Ringer buffer (KRB) containing 5 mM glucose. The test materials were added at a concentration of 10 μM. 30 minutes later, 0.2 μCi 2-deoxyglucose was added. KRB was removed 20 minutes later and the cells were washed for 3 times with cold PBS. The cells were lysed with 0.5N NaOH and counted using a radioactive counter.

Row | Compound | Glucose absorption
1 | COc1ccc(Nc2nc(-c3ccccc3)nc3ccccc23)cc1O [Compound 84, 2-Methoxy-5-(2-phenylquinazolino-4-ylamino)phenol] | 1.0
2 | COc1cccc(CNc2nc(-c3ccncc3)nc3ccccc23)c1 [Compound 248, (3-Methoxybenzyl)-(2-pyridino-4-ylquinazolino-4-yl)-amine] | 1.4
3 | COc1ccc(CNc2nc(Cc3ccccc3)nc3ccccc23)c(OC)c1 [Compound 333, (2-Benzylquinazolino-4-yl)-(2,4-dimethoxybenzyl)-amine] | 1.2
4 | CN1CCN(CCNc2nc(-c3ccccc3)nc3ccccc23)CC1 [Compound 158, [2-(4-Methylpiperazino-1-yl)-ethyl]-(2-phenylquinazolino-4-yl)-amine] | 2.0
5 | c1ccc(Cc2nc(NCc3ccc4c(c3)OCO4)c3ccccc3n2)cc1 [Compound 218, Benzo[1,3]dioxol-5-ylmethyl-(2-benzylquinazolino-4-yl)-amine] | 2.0
6 | CCc1ccc(Nc2nc(-c3ccccc3)nc3ccccc23)cc1 [Compound 75, (4-Ethyl-phenyl)-(2-phenylquinazolino-4-yl)-amine] | 1.3
7 | Fc1cccc(CNc2nc(-c3ccccn3)nc3ccccc23)c1 [Compound 231, (3-Fluorobenzyl)-(2-pyridino-2-ylquinazolino-4-yl)-amine] | 1.2
8 | CC(C)Nc1nc(-c2ccccc2)nc2ccccc12 [Compound 60, Isopropyl-(2-phenylquinazolino-4-yl)-amine] | 1.0
9 | COc1ccc(Nc2nc(-c3ccccc3)nc3ccccc23)cc1 [Compound 70, (4-Methoxyphenyl)-(2-phenylquinazolino-4-yl)-amine] | 1.0
10 | COc1cccc(CNc2nc(-c3ccccc3)nc3ccccc23)c1 [Compound 90, (3-Methoxybenzyl)-(2-phenylquinazolino-4-yl)-amine] | 1.4
11 | COc1cccc(CNc2nc(-c3ccccc3)nc3ccccc23)c1OC [Compound 93, (2,3-Dimethoxybenzyl)-(2-phenylquinazolino-4-yl)-amine] | 1.1
12 | Cc1ccc(CNc2nc(-c3ccccc3)nc3ccccc23)cc1 [Compound 54, (4-Methylbenzyl)-(2-phenylquinazolino-4-yl)-amine] | 1.2
13 | COc1cccc(CNc2nc(Cc3ccccc3)nc3ccccc23)c1 [Compound 212, (2-Benzylquinazolino-4-yl)-(3-methoxybenzyl)-amine] | 2.0
14 | Clc1ccc(Nc2nc(-c3ccccc3)nc3ccccc23)cc1 [Compound 162, (4-Chlorophenyl)-(2-phenylquinazolino-4-yl)-amine] | 1.3
15 | FC(F)(F)c1cccc(CNc2nc(Cc3ccccc3)nc3ccccc23)c1 [Compound 214, (2-Benzylquinazolino-4-yl)-(3-trifluoromethylbenzyl)-amine] | 2.0
16 | COc1ccc(CNc2nc(C(C)(C)C)nc3ccccc23)cc1 [Compound 189, (2-tert-Butylquinazolino-4-yl)-(4-methoxybenzyl)-amine] | 1.3
17 | c1ccc(-c2nc(NCc3ccc4c(c3)OCO4)c3ccccc3n2)cc1 [Compound 65, Benzo[1,3]dioxol-5-ylmethyl-(2-phenylquinazolino-4-yl)-amine] | 1.4
18 | OCCNc1nc(-c2ccc(Cl)cc2)nc2ccccc12 [Compound 270, 2-[2-(4-Chlorophenyl)-quinazolino-4-ylamino]-ethanol] | 1.1
19 | OCCOCCNc1nc(C2CCCCC2)nc2ccccc12 [Compound 209, 2-[2-(2-Cyclohexylquinazolino-4-ylamino)-ethoxy]-ethanol] | 1.1
20 | Fc1cccc(CCNc2nc(C3CCCCC3)nc3ccccc23)c1 [Compound 208, (2-Cyclohexylquinazolino-4-yl)-[2-(3-fluorophenyl)-ethyl]-amine] | 2.0
21 | c1ccc(-c2nc(NC3CCCCC3)c3ccccc3n2)cc1 [Compound 51, Cyclohexyl-(2-phenylquinazolino-4-yl)-amine] | 1.0
22 | CCCCc1ccc(Nc2nc(-c3ccccc3)nc3ccccc23)cc1 [Compound 79, (4-Butyl-phenyl)-(2-phenylquinazolino-4-yl)-amine] | 1.1
23 | c1ccc2c(NCc3ccc4c(c3)OCO4)nc(-c3ccncc3)nc2c1 [Compound 254, Benzo[1,3]dioxol-5-ylmethyl-(2-pyridino-4-ylquinazolino-4-yl)-amine] | 1.4
24 | COc1cccc(CNc2nc(C(C)(C)C)nc3ccccc23)c1 [Compound 188, (2-tert-Butylquinazolino-4-yl)-(3-methoxybenzyl)-amine] | 1.0
25 | c1ccc2c(NCc3ccc4c(c3)OCO4)nc(C3CCCCC3)nc2c1 [Compound 206, Benzo[1,3]dioxol-5-ylmethyl-(2-cyclohexylquinazolino-4-yl)-amine] | 1.4
26 | CCSc1nc(NC(C)c2ccccc2)c2ccccc2n1 (stereo not drawn) [Compound 23, (2-Ethylsulfanylquinazolino-4-yl)-(1-phenylethyl)-amine] | 0.8

Row | Compound | Glucose absorption
27 | COc1ccccc1Nc1nc(-c2ccccc2)nc2ccccc12 [Compound 77, (2-Methoxyphenyl)-(2-phenylquinazolino-4-yl)-amine] | 1.4
28 | CCCCNc1nc(-c2ccccc2)nc2ccccc12 [Compound 56, Butyl-(2-phenylquinazolino-4-yl)-amine] | 1.1
29 | CC(C)(C)c1nc(NCCOCCO)c2ccccc2n1 [Compound 197, 2-[2-(2-tert-Butylquinazolino-4-ylamino)-ethoxy]-ethanol] | 1.3
30 | FC(F)(F)c1cccc(CNc2nc(-c3ccc(Cl)cc3)nc3ccccc23)c1 [Compound 262, [2-(4-Chlorophenyl)-quinazolino-4-yl]-(3-trifluoromethylbenzyl)-amine] | 1.1
31 | Clc1ccc(CNc2nc(-c3ccccc3)nc3ccccc23)cc1Cl [Compound 89, (3,4-Dichlorobenzyl)-(2-phenylquinazolino-4-yl)-amine] | 1.4
32 | CCSc1nc(NCCOC)c2ccccc2n1 [Compound 34, (2-Ethylsulfanylquinazolino-4-yl)-(2-methoxy-ethyl)-amine] | 1.3
33 | c1ccc(-c2nc(NCC3CCCCC3)c3ccccc3n2)cc1 [Compound 132, Cyclohexylmethyl-(2-phenylquinazolino-4-yl)-amine] | 1.3
34 | Cc1nc(NCCO)c2ccccc2n1 [Compound 174, 2-(2-Methylquinazolino-4-ylamino)-ethanol] | 1.2
35 | CC(C)c1nc(NCCO)c2ccccc2n1 [Compound 186, 2-(2-Isopropylquinazolino-4-ylamino)-ethanol] | 1.0
36 | CC(C)CNc1nc(-c2ccccc2)nc2ccccc12 [Compound 55, Isobutyl-(2-phenylquinazolino-4-yl)-amine] | 1.2
37 | CC(C)OCCCNc1nc(-c2ccccc2)nc2ccccc12 [Compound 62, (3-Isopropoxypropyl)-(2-phenylquinazolino-4-yl)-amine] | 1.1
38 | COc1cccc(CNc2nc(-c3cccnc3)nc3ccccc23)c1 [Compound 236, (3-Methoxybenzyl)-(2-pyridino-3-ylquinazolino-4-yl)-amine] | 1.2
39 | FC(F)(F)c1ccccc1CNc1nc(-c2ccccc2)nc2ccccc12 [Compound 98, (2-Phenylquinazolino-4-yl)-(2-trifluoromethylbenzyl)-amine] | 1.2
40 | COc1ccc(CCNc2nc(-c3ccccc3)nc3ccccc23)cc1OC [Compound 107, [2-(3,4-Dimethoxyphenyl)-ethyl]-(2-phenylquinazolino-4-yl)-amine] | 0.4
41 | OCCOCCNc1nc(-c2ccncc2)nc2ccccc12 [Compound 257, 2-[2-(2-Pyridino-4-ylquinazolino-4-ylamino)-ethoxy]-ethanol] | 1.4
42 | c1ccc(-c2nc(NCc3ccncc3)c3ccccc3n2)cc1 [Compound 141, (2-Phenylquinazolino-4-yl)-pyridino-4-ylmethylamine] | 2.1
43 | COc1cc(CNc2nc(Cc3ccccc3)nc3ccccc23)cc(OC)c1OC [Compound 332, (2-Benzylquinazolino-4-yl)-(3,4,5-trimethoxybenzyl)-amine] | 1.1
44 | CC(C)(C)c1nc(NCCO)c2ccccc2n1 [Compound 198, 2-(2-tert-Butylquinazolino-4-ylamino)-ethanol] | 1.4
45 | CC(C)(C)c1nc(NCc2ccc3c(c2)OCO3)c2ccccc2n1 [Compound 194, Benzo[1,3]dioxol-5-ylmethyl-(2-tert-butylquinazolino-4-yl)-amine] | 1.4
46 | CCSc1nc(NC2CCCCC2)c2ccccc2n1 [Compound 27, Cyclohexyl-(2-ethylsulfanylquinazolino-4-yl)-amine] | 1.0
47 | COc1ccc(CNc2nc(-c3ccc(Cl)cc3)nc3ccccc23)cc1 [Compound 261, [2-(4-Chlorophenyl)-quinazolino-4-yl]-(4-methoxybenzyl)-amine] | 1.1
48 | OCCOCCNc1nc(-c2cccnc2)nc2ccccc12 [Compound 245, 2-[2-(2-Pyridino-3-ylquinazolino-4-ylamino)-ethoxy]-ethanol] | 1.2
49 | CCC(C)Nc1nc(-c2ccccc2)nc2ccccc12 (stereo not drawn) [Compound 96, sec-Butyl-(2-phenylquinazolino-4-yl)-amine] | 1.3
50 | CCSc1nc(NC(CC)COC)c2ccccc2n1 (stereo not drawn) [Compound 40, (2-Ethylsulfanylquinazolino-4-yl)-(1-methoxymethylpropyl)-amine] | 1.2
51 | CC(C)c1nc(NCCOCCO)c2ccccc2n1 [Compound 185, 2-[2-(2-Isopropylquinazolino-4-ylamino)-ethoxy]-ethanol] | 1.4
